Test results: patent US9339469B2, “R(+)-N-methyl-propargyl-aminoindan” (Teva Pharmaceutical Industries, Ltd., priority 2011, dated 2016)

What was measured:
[1] = melt phase, 78 and 90° C. for 24, 72 or 137 hrs
Description: Samples intended to degrade under en inert atmosphere were flushed with nitrogen for 5 minutes before closing with a stepper.
The samples were introduced into a pre-heated oven and held at a constant temperature of 78 and 90° C. for 24, 72 or 137 hrs. After completion of the treatment the samples were refrigerated and analyzed.

[2] = in vivo; cited from earlier work

C#CCN[C@@H]1CCc2ccccc21 [rasagiline, R(+)-N-propargyl-1-aminoindan]
formation of R(+)-N-methyl-PAI (summary of Table 1) [1]: no R(+)-N-methyl-PAI was formed
absolute bioavailability [2]: about 36%
